In ChEMBL document CHEMBL3734744, “Synthesis, 3D pharmacophore, QSAR and docking studies of novel quinazoline derivatives with nitric oxide release moiety as preferential COX-2 inhibitors” (Medchemcomm, 2015):

Tests used:
Rattus norvegicus [1] = assay: Antiinflammatory activity in Sprague-Dawley rat assessed as inhibition of carrageenan-induced paw edema at 80 mg/kg, po administered 30 mins prior to carrageenan challenge measured at 3 hrs by plethysmometer relative to meloxicam; format: functional
[2] = molecular target: T1, Prostaglandin G/H synthase 2 (Ovis aries, UniProt P79208); assay: Inhibition of ovine COX2 after 5 mins by enzyme immuno assay
T1 sequence (P79208 whole entry): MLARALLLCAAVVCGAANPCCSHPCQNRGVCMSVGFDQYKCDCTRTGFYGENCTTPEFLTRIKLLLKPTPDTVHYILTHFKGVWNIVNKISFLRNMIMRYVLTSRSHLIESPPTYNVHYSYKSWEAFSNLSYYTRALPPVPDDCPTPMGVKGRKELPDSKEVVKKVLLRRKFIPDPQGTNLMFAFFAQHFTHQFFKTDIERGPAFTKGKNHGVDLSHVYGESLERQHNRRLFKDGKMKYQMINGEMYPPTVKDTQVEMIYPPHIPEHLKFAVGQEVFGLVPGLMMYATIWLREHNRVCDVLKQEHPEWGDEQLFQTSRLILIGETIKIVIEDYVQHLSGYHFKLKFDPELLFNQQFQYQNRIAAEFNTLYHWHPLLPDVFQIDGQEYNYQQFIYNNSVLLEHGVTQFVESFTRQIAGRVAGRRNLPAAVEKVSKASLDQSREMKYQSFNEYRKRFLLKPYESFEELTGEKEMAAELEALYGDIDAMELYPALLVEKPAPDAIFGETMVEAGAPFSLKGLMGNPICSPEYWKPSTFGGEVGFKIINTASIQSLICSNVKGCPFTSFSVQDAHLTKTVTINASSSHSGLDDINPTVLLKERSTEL

Ovis aries = species: Ovis aries; assay: Selectivity index, ratio of IC50 for ovine COX1 to IC50 for ovine COX2
[3] = molecular target: T2, Prostaglandin G/H synthase 1 (Ovis aries, UniProt P05979); assay: Inhibition of ovine COX1 after 5 mins by enzyme immuno assay
T2 sequence (P05979 whole entry): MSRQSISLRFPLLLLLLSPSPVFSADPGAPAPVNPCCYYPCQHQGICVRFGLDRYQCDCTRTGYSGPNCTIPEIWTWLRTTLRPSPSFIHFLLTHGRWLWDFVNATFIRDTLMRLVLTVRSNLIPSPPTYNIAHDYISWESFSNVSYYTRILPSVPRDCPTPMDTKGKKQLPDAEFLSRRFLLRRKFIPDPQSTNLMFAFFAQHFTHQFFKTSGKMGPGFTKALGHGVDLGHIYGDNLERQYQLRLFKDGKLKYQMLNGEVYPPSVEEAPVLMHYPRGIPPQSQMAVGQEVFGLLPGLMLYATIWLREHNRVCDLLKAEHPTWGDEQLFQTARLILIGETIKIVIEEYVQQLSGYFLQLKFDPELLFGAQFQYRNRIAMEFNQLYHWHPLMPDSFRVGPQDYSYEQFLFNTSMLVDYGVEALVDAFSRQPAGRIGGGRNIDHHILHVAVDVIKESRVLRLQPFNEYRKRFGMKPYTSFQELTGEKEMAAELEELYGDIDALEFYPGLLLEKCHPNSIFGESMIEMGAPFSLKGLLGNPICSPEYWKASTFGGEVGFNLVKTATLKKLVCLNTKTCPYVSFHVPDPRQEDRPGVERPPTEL

Rattus norvegicus [4] = assay: Antiinflammatory activity in Sprague-Dawley rat assessed as inhibition of carrageenan-induced paw edema at 80 mg/kg, po administered 30 mins prior to carrageenan challenge measured at 1 hr by plethysmometer; format: functional
Rattus norvegicus [5] = assay: Antiinflammatory activity in Sprague-Dawley rat assessed as inhibition of carrageenan-induced paw edema at 80 mg/kg, po administered 30 mins prior to carrageenan challenge measured at 2 hrs by plethysmometer; format: functional
Rattus norvegicus [6] = assay: Antiinflammatory activity in Sprague-Dawley rat assessed as inhibition of carrageenan-induced paw edema at 80 mg/kg, po administered 30 mins prior to carrageenan challenge measured at 3 hrs by plethysmometer; format: functional
Serum = assay: Induction of nitric oxide release in rat serum by Griess assay; format: functional
Rattus norvegicus [7] = assay: Gastrointestinal toxicity in Wistar albino rat assessed as ulceration at 10 mg/kg/day, po administered for 3 days measured after 2 hrs post last dose by haematoxylin/eosin staining-based microscopic analysis; format: organism-based; settings: in vivo
Rattus norvegicus [8] = assay: Gastrointestinal toxicity in Wistar albino rat assessed as ulcer index at 10 mg/kg/day, po administered for 3 days measured after 2 hrs post last dose; format: organism-based; settings: in vivo

SMILES	inhibition in vivo at 80 mg/kg (Rattus norvegicus [1]) [%]	IC50 [2] [µM]	Ratio IC50 (Ovis aries)	IC50 [3] [µM]	inhibition in vivo at 80 mg/kg (Rattus norvegicus [4]) [%]	inhibition in vivo at 80 mg/kg (Rattus norvegicus [5]) [%]	inhibition in vivo at 80 mg/kg (Rattus norvegicus [6]) [%]	Activity (Serum) [µmol/L]	Activity (Rattus norvegicus [7])	UI (Rattus norvegicus [8])
Cc1ccc(S(=O)(=O)Nn2c(C)nc3ccccc3c2=O)cc1	83.9	5.75	5.67	32.7	3.2	24.2	51.9			
CC(=O)Nc1ccc(S(=O)(=O)Nn2c(CO[N+](=O)[O-])nc3ccccc3c2=O)cc1	> 100	3.59	6.72	24.1	15.2	40.4	64.8	7.9	Toxic	1.3
O=c1c2ccccc2nc(CO[N+](=O)[O-])n1NS(=O)(=O)c1ccccc1	55	42.1	2.41	98.6	2.4	11.6	34	16.73	Non-toxic	0.5
O=C(Nc1ccccc1)Nn1c(CO[N+](=O)[O-])nc2ccccc2c1=O	82.9	5.93	4.11	24.4	6.4	25.8	51.3	22.8	Non-toxic	0.6
Cc1ccc(S(=O)(=O)Nn2c(CO[N+](=O)[O-])nc3ccccc3c2=O)cc1	71.6	11.7	3.32	38.8	6.4	15.7	44.3	10.4	Toxic	1
Cc1nc2ccccc2c(=O)n1NS(=O)(=O)c1ccccc1	77.2	8.58	3.5	30.1	5.6	22.2	47.8			
CC(=O)Nc1ccc(S(=O)(=O)Nn2c(C)nc3ccccc3c2=O)cc1	95.7	4.41	5.16	22.8	20.8	37.4	59.2			
